According to US20250221966A1, “RXFP1 AGONISTS” (BRISTOL-MYERS SQUIBB COMPANY, priority 2021, published 2025):
Like-named read-outs stand apart in the source and are kept apart here.

Target: T1, human RXFP1 (Homo sapiens, UniProt Q9HBX9)
T1 construct: expressed in transfected cells
T1 sequence (Q9HBX9 1-757): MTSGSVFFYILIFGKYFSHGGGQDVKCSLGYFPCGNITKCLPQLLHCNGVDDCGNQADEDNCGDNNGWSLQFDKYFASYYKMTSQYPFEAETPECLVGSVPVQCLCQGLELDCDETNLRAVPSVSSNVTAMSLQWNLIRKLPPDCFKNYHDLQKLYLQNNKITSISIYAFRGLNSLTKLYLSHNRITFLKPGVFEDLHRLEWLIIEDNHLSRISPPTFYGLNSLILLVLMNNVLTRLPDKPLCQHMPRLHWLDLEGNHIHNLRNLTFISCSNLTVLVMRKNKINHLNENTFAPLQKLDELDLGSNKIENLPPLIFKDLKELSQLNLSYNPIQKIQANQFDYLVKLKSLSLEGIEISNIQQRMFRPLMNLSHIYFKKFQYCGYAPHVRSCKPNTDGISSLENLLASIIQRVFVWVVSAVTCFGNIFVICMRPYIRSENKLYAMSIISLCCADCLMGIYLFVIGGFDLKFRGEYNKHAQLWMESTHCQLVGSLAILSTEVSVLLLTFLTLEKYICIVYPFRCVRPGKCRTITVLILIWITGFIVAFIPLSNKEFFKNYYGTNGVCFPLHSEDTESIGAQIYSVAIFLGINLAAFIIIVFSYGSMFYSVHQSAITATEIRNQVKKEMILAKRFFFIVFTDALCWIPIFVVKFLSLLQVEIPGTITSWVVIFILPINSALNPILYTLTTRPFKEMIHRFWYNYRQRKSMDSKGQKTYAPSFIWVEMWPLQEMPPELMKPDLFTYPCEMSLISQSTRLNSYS
Assay: RXFP1 cAMP assay (hRXFP1 HEK293 cAMP assay, HTRF)
Assay type: cell-based
Summary of the method: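 In a stable human RXFP1 HEK293 line, compounds acted for 30 min at RT in buffer with 0.5 mM IBMX. HTRF then quantified cellular cAMP.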

[1] = HEK293 cells stably expressing human RXFP1, 30 min at room temperature, read-out: cAMP hRXFP1 HEK293 Assay EC50

Compound | EC50 (cAMP hRXFP1 HEK293 Assay EC50, HEK293 cells stably expressing human RXFP1, 30 min at room temperature) | EC50 [1]
CNC(=O)OC(C(=O)O)c1ccc(F)c(-c2ccc(OC)c(C(=O)N[C@@H]3C4CCC(/C4=C/C4CC4)[C@@H]3C(=O)Nc3ccc(F)c(C(F)(F)F)c3)c2)c1 (stereo partly shown) [Example 179] | 5 nM | 
COc1ccc(C2=NOC3COCC23)cc1C(=O)N[C@H]1[C@@H](C(=O)NCC2(C)COC2)[C@H]2CC[C@@H]1/C2=C\C1CC1 (stereo partly shown) [compound 675] |  | 485 nM
COc1cc(F)c(F)cc1C(=O)N[C@@H]1C2CCC(/C2=C/C2=CCCCC2)[C@@H]1C(=O)Nc1ccc(F)c(C(F)(F)F)c1 (stereo partly shown) [compound 35] |  | 30 nM
COc1ccc(C2CCCN2C(=O)CCO)cc1C(=O)N[C@@H]1C2CCC(C2=CC2CC2)[C@@H]1C(=O)Nc1ccc(F)c(C(F)(F)F)c1 (stereo partly shown) [compound 634] |  | 191 nM
COc1ccc(-c2cc(C(=O)O)ccc2F)cc1C(=O)N[C@@H]1C2CCC(/C2=C/C2CC2)[C@@H]1C(=O)Oc1cccc(-c2nnnn2C)c1 (stereo partly shown) [compound 272] |  | 3830 nM
COc1ccc(-c2cncc(C(=O)O)c2)cc1C(=O)N[C@@H]1C2CCC(/C2=C/C(F)(F)F)[C@@H]1C(=O)Nc1ccc(F)c(C(F)(F)F)c1 (stereo partly shown) [compound 288] |  | 127 nM
COc1ccc(C2=NOC3CC(F)CC23)cc1C(=O)N[C@H]1[C@@H](C(=O)Nc2ccc(F)c(C(F)(F)F)c2)[C@H]2CC[C@@H]1/C2=C\C1CC1 (stereo partly drawn) [Example 427, (1R,2S,3R,4R,Z)-7-(cyclopropylmethylene)-N-(4-fluoro-3-(trifluoromethyl)phenyl)-3-(5-(5-fluoro-3a,5,6,6a-tetrahydro-4H-cyclopenta[d]isoxazol-3-yl)-2-methoxybenzamido)bicyclo[2.2.1]heptane-2-carboxamide] |  | 54 nM
COc1ccc(C2=NOC3COCC23)cc1C(=O)N[C@H]1[C@@H](C(=O)N[C@@H]2CCOc3ccccc32)[C@H]2CC[C@@H]1/C2=C\C1CC1 (stereo partly shown) [compound 645] |  | 239 nM
COc1cc(F)c(F)cc1C(=O)N[C@@H]1C2CCC(/C2=C2\CCc3ccccc32)[C@@H]1C(=O)Nc1ccc(F)c(C(F)(F)F)c1 (stereo partly shown) [compound 72] |  | 250 nM
COc1ccc(-c2cc(C(=O)N3CC[C@@H](O)C3)on2)cc1C(=O)N[C@H]1[C@@H](C(=O)Nc2ccc(F)c(C(F)(F)F)c2)[C@H]2CC[C@@H]1/C2=C\C1CC1 [compound 617] |  | 153 nM
COc1ccc(C2=NOC(C(=O)O)C2)cc1C(=O)N[C@H]1[C@@H](C(=O)Nc2ccc(F)c(C(F)(F)F)c2)[C@H]2CC[C@@H]1/C2=C\C1CC1 (mixture of isomers) [Example 384, 3-(3-(((1R,2R,3S,4R,Z)-7-(cyclopropylmethylene)-3-((4-fluoro-3-(trifluoromethyl)phenyl)carbamoyl)bicyclo[2.2.1]heptan-2-yl)carbamoyl)-4-methoxyphenyl)-4,5-dihydroisoxazole-5-carboxylic acid] |  | 123 nM
COc1ccc(C2=NOC(C3(O)CCCCC3)C2)cc1C(=O)N[C@H]1[C@@H](C(=O)Nc2ccc(F)c(C(F)(F)F)c2)[C@H]2CC[C@@H]1/C2=C\C1CC1 (single isomer, unassigned) [compound 615] |  | 139 nM
COc1ccc(C2=NOC3COCC23)cc1C(=O)N[C@H]1[C@@H](C(=O)NCc2c(C)noc2C)[C@H]2CC[C@@H]1/C2=C\C1CC1 (stereo partly shown) [compound 673] |  | 477 nM
O=C(N[C@H]1[C@@H](C(=O)Nc2ccc(F)c(C(F)(F)F)c2)[C@H]2CC[C@@H]1/C2=C\C1CC1)c1cc(C2=NOC3CC(CO)CC23)ccc1F (single isomer, unassigned) [compound 717] |  | 2320 nM
COc1ccc(C2=NOC(C(C)(C)O)C2)cc1C(=O)N[C@H]1[C@@H](C(=O)Nc2ccc(F)c(C(F)(F)F)c2)[C@H]2CC[C@@H]1/C2=C\C1CC1 (single isomer, unassigned) [compound 573] |  | 67.4 nM
COc1ccc(C2=NOC3COCC23)cc1C(=O)N[C@H]1[C@@H](C(=O)NCc2ncccc2C(F)(F)F)[C@H]2CC[C@@H]1/C2=C\C1CC1 (stereo partly shown) [compound 690] |  | 712 nM
COc1ccc(N2CC(CN)CC2=O)cc1C(=O)N[C@H]1[C@@H](C(=O)Nc2ccc(F)c(C(F)(F)F)c2)[C@H]2CC[C@@H]1/C2=C\C1CC1 (stereo partly shown) [compound 712] |  | 1600 nM

Further molecules by falling EC50 [1], results first:

EC50 (cAMP hRXFP1 HEK293 Assay EC50, HEK293 cells stably expressing human RXFP1, 30 min at room temperature) | EC50 [1] | Compound
 | 21.9 nM | COc1ccc(C2=NOC(C(C)(C)O)C2)cc1C(=O)N[C@H]1[C@@H](C(=O)Nc2ccc(F)c(C(F)(F)F)c2)[C@H]2CC[C@@H]1/C2=C\C1CC1 (single isomer, unassigned) [compound 524]
 | 18 nM | COc1ccc(C2=NOC(C(C)(O)C(F)(F)F)C2)cc1C(=O)N[C@H]1[C@@H](C(=O)Nc2ccc(F)c(C(F)(F)F)c2)[C@H]2CC[C@@H]1/C2=C\C1CC1 (single isomer, unassigned) [compound 517]
 | 9 nM | COc1ccc(-c2cc(C3=NOC(C(=O)O)C3)ccc2F)cc1C(=O)N[C@H]1[C@@H](C(=O)Nc2ccc(F)c(C(F)(F)F)c2)[C@H]2CC[C@@H]1/C2=C\C1CCCC1 (stereo partly shown) [compound 913]
 | 8.5 nM | COc1ccc(C2=NOC3CC(C(O)C(F)(F)F)CC23)cc1C(=O)N[C@H]1[C@@H](C(=O)Nc2ccc(F)c(C(F)(F)F)c2)[C@H]2CC[C@@H]1/C2=C\C1CC1 (single isomer, unassigned) [Example 489]
 | 7.3 nM | COc1ccc(C2=NOC3C(O)CCC23)cc1C(=O)N[C@H]1[C@@H](C(=O)Nc2ccc(F)c(C(F)(F)F)c2)[C@H]2CC[C@@H]1/C2=C\C1CC1 (single isomer, unassigned) [compound 483]
 | 5.3 nM | COc1ccc(-c2cc(S(=O)(=O)NC(C)(C)C)ccc2F)cc1C(=O)N[C@H]1[C@@H](C(=O)N[C@H](C)C2(C)CC2)[C@H]2CC[C@@H]1/C2=C\C1CC1 [compound 957]
 | 3.7 nM | COc1c(F)cc(C2=NOC3CC(CO)CC23)cc1C(=O)N[C@H]1[C@@H](C(=O)Nc2ccc(F)c(C(F)(F)F)c2)[C@H]2CC[C@@H]1/C2=C\CC(C)C (stereo partly shown) [compound 796]
 | 3 nM | COc1ccc(-c2cc(C(OC(=O)Nc3cccc(F)c3)C(F)(F)F)ccc2F)cc1C(=O)N[C@@H]1C2CCC(/C2=C/C2CC2)[C@@H]1C(=O)Nc1ccc(F)c(C(F)(F)F)c1 (stereo partly shown) [compound 228]
 | 2 nM | COc1ccc(C2=NOC3CC(CO)CC23)cc1C(=O)N[C@@H]1C2CCC(/C2=C/C2CC2)[C@@H]1C(=O)Nc1ccc(F)c(C(F)(F)F)c1 (single isomer, unassigned) [compound 432]
 | 1.3 nM | COc1ccc(C2=NOC3CC(C)(CO)CC23)cc1C(=O)N[C@H]1[C@@H](C(=O)Nc2ccc(F)c(C(F)(F)F)c2)[C@H]2CC[C@@H]1/C2=C\C1CC1 (stereo partly shown) [compound 735]
 | 1.3 nM | COc1ccc(-c2cc(C(COC(=O)NC3CCC3)C(F)(F)F)ccc2F)cc1C(=O)N[C@H]1[C@@H](C(=O)Nc2ccc(F)c(C(F)(F)F)c2)[C@H]2CC[C@@H]1/C2=C\C1CCCC1 (stereo partly shown) [compound 894]
 | 1 nM | COc1ccc(C2=NOC3COCC23)cc1C(=O)N[C@@H]1C2CCC(/C2=C/C2CCC2)[C@@H]1C(=O)Nc1ccc(F)c(C(F)(F)F)c1 (single isomer, unassigned) [Example 416]
 | 1 nM | COc1ccc(-c2cc(C(OC(=O)Nc3ccccc3)C(=O)O)ccc2F)cc1C(=O)N[C@@H]1C2CCC(/C2=C/C(F)(F)F)[C@@H]1C(=O)Nc1ccc(F)c(C(F)(F)F)c1 (stereo partly shown) [compound 205]
 | 0.1 nM | COc1ccc(-c2cc([C@H](NC(=O)C3CCOCC3)C(F)(F)F)ccc2F)cc1C(=O)N[C@H]1[C@@H](C(=O)Nc2ccc(F)c(C(F)(F)F)c2)[C@H]2CC[C@@H]1/C2=C\C1CCCC1 [compound 955]
